The structures appear in SMILES notation.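 Values below derive from 48-hour exposures of cells grown in 96-well plates, with endpoints linearly interpolated between the two concentrations bracketing the appropriate inhibition level. GI50 marks 50% less growth. TGI: concentration producing complete growth inhibition.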

Test systems include HOP-92 NSCLC; LOX IMVI melanoma; DMS 273 small cell lung; KM20L2 colon; HCC-2998 colon; NCI-H460 lung; EKVX NSCLC; SNB-75 CNS; SK-MEL-2 melanoma; MCF7 breast.
Assay in all cases: inhibition of tumour cell growth, NCI panel, 48 h

As to `CC(C)(C)c1cc(O)c2c(c1O)C(=O)CCC2`, the TGI in the experiment with HOP-92 NSCLC is 21.1 µM; in the experiment with LOX IMVI melanoma, above 100 µM; with DMS 273 small cell lung, above 100 µM; in the experiment with KM20L2 colon, above 100 µM; in the experiment on HCC-2998 colon, above 100 µM; with NCI-H460 lung, above 100 µM. In addition, the TGI in the experiment on EKVX NSCLC and with SNB-75 CNS was above 100 µM each time.

For `CC[C@]12C=CCN3CC[C@@]4(c5ccc(OC)cc5N(C)[C@H]4[C@@](O)(C(=O)OC)[C@@H]1OC(=O)CCCC[P+](c1ccccc1)(c1ccccc1)c1ccccc1)[C@@H]32`, the GI50 in the experiment with HOP-92 NSCLC is 0.238 µM; in the experiment on LOX IMVI melanoma, 1.11 µM; in the experiment with SK-MEL-2 melanoma, 0.478 µM; in the experiment with HCC-2998 colon, 0.42 µM; with NCI-H460 lung it was 1.7 µM; in the experiment with EKVX NSCLC it was 0.907 µM. The values for the GI50 with MCF7 breast and with SNB-75 CNS were 0.32 µM and 0.357 µM, respectively. Besides, the TGI with HOP-92 NSCLC was found to be 1.35 µM; with LOX IMVI melanoma it was 9.03 µM; with SK-MEL-2 melanoma, 1.45 µM; in the experiment on HCC-2998 colon, 2.71 µM; in the experiment on NCI-H460 lung it was 11.6 µM; in the experiment with EKVX NSCLC, 15.8 µM. Also, the TGI with MCF7 breast was found to be 5.3 µM; in the experiment with SNB-75 CNS, 2.08 µM.

In the case of `OCC(O)C(O)C(O)c1nn[nH]n1` (stereo not given), the TGI in the experiment on HOP-92 NSCLC, in the experiment with LOX IMVI melanoma, in the experiment on DMS 273 small cell lung, with SK-MEL-2 melanoma, in the experiment on NCI-H460 lung and in the experiment with EKVX NSCLC was above 100 µM throughout. In the experiment on SNB-75 CNS, this compound had a TGI above 100 µM.

For the compound `NC(N)=NS(=O)(=O)c1ccc(NC(=O)c2cccn3c(=O)c4ccccc4nc23)cc1`, the TGI in the experiment on HOP-92 NSCLC was above 100 µM; with LOX IMVI melanoma, above 100 µM; in the experiment with DMS 273 small cell lung, above 100 µM; in the experiment on KM20L2 colon it was 63.7 µM; with HCC-2998 colon, above 100 µM; in the experiment with NCI-H460 lung it was above 100 µM. Besides, the TGI in the experiment on EKVX NSCLC and with SNB-75 CNS was above 100 µM in each case.

Take `COc1ccc(-c2cc(=O)c3c(OC)c(O)c(OC)cc3o2)cc1`: the TGI in the experiment on HOP-92 NSCLC was 89.6 µM; in the experiment with LOX IMVI melanoma, above 100 µM; in the experiment with SK-MEL-2 melanoma, above 100 µM; with HCC-2998 colon, above 100 µM; in the experiment on NCI-H460 lung it was above 100 µM; in the experiment with EKVX NSCLC, above 100 µM. Also, the TGI in the experiment on MCF7 breast and in the experiment with SNB-75 CNS was above 100 µM each time.

For `CC12CCC(=O)N1c1cc([N+](=O)[O-])ccc1N2` (stereo not given), the TGI in the experiment with LOX IMVI melanoma, in the experiment with DMS 273 small cell lung, with KM20L2 colon, in the experiment with SK-MEL-2 melanoma, in the experiment with EKVX NSCLC and with SNB-75 CNS was above 100 µM throughout.

On to `N=C(N)c1ccc(CS(=O)(=O)F)cc1`, for which the GI50 in the experiment on HOP-92 NSCLC was above 100 µM; in the experiment on LOX IMVI melanoma it was 81.2 µM; in the experiment with SK-MEL-2 melanoma, above 100 µM; in the experiment with HCC-2998 colon, above 100 µM; with NCI-H460 lung, above 100 µM; with EKVX NSCLC it was above 100 µM. The GI50 in the experiment on MCF7 breast and in the experiment with SNB-75 CNS was above 100 µM each time. For the same compound, the TGI with HOP-92 NSCLC, with LOX IMVI melanoma, with SK-MEL-2 melanoma, with HCC-2998 colon, in the experiment on NCI-H460 lung and with EKVX NSCLC was above 100 µM in each case. Further, the TGI in the experiment with MCF7 breast and with SNB-75 CNS was above 100 µM throughout.

In the case of `COc1ccc(/C=C(/C(=O)N2CCN(c3ccc(C)cc3)CC2)c2cc(OC)c(OC)c(OC)c2)cc1N`, the GI50 in the experiment with HOP-92 NSCLC was 0.205 µM; in the experiment with LOX IMVI melanoma it was 0.221 µM; in the experiment with SK-MEL-2 melanoma, 0.64 µM; in the experiment on HCC-2998 colon, 0.376 µM; in the experiment with NCI-H460 lung, 0.347 µM; in the experiment with EKVX NSCLC, 0.628 µM. The figures for the GI50 in the experiment with MCF7 breast and in the experiment on SNB-75 CNS were 0.228 µM and 0.509 µM, respectively. For the same compound, the TGI in the experiment on HOP-92 NSCLC is above 100 µM; in the experiment on LOX IMVI melanoma, above 100 µM; in the experiment with SK-MEL-2 melanoma it was above 100 µM; in the experiment on HCC-2998 colon it was above 100 µM; with NCI-H460 lung, above 44 µM; in the experiment with EKVX NSCLC it was above 100 µM. Further, the TGI in the experiment on MCF7 breast and in the experiment on SNB-75 CNS was above 100 µM in each case.

Take `COc1ccc(C(=O)OC2C(OC3C(O)COC(O[C@H]4C[C@H]5[C@@H]6CC=C7C[C@@H](O)CC[C@]7(C)[C@H]6CC[C@]5(C)[C@H]4[C@H](C)C(=O)CCC(C)C)C3OC(=O)C(C)C)OCC(O)C2O)cc1` (stereo not given in full): the GI50 in the experiment with HOP-92 NSCLC was 0.0208 µM; in the experiment with LOX IMVI melanoma it was 0.0107 µM; with SK-MEL-2 melanoma it was 0.0102 µM; with HCC-2998 colon it was 1.88 µM; in the experiment with NCI-H460 lung it was 0.0108 µM; in the experiment on EKVX NSCLC, 0.0163 µM. Besides, the GI50 with MCF7 breast is 0.0136 µM; in the experiment on SNB-75 CNS, 0.00698 µM. Also, the TGI was 3.1 µM with HOP-92 NSCLC; 0.0488 µM in the experiment with LOX IMVI melanoma; 0.213 µM with SK-MEL-2 melanoma; 5.79 µM with HCC-2998 colon; 0.538 µM in the experiment on NCI-H460 lung; 3.87 µM with EKVX NSCLC. Also, the TGI with MCF7 breast came out at 2.99 µM; in the experiment on SNB-75 CNS it was 4.9 µM.

`CS(=O)(=O)c1nccc(-c2c(-c3cccc(OCc4ccccc4)c3)nc3sccn23)n1`: the GI50 in the experiment with HOP-92 NSCLC is 6.38 µM; in the experiment with LOX IMVI melanoma, 5.13 µM; in the experiment with SK-MEL-2 melanoma, above 100 µM; in the experiment on HCC-2998 colon it was 3.49 µM; with NCI-H460 lung, above 83.5 µM; in the experiment on EKVX NSCLC, 26.4 µM. The figures for the GI50 in the experiment on MCF7 breast and with SNB-75 CNS were 7.31 µM and above 28.5 µM, respectively. The TGI with HOP-92 NSCLC is above 100 µM; in the experiment with LOX IMVI melanoma, above 100 µM; in the experiment with SK-MEL-2 melanoma, above 100 µM; in the experiment with HCC-2998 colon it was 8.36 µM; in the experiment with NCI-H460 lung it was above 100 µM; with EKVX NSCLC it was above 100 µM. Besides, the TGI with MCF7 breast and in the experiment with SNB-75 CNS was above 100 µM each time.

As for `NNC(=O)C(O)C(O)C(O)CO` (stereo not given), the TGI with HOP-92 NSCLC, in the experiment on LOX IMVI melanoma, in the experiment on SK-MEL-2 melanoma, in the experiment on HCC-2998 colon, with NCI-H460 lung and in the experiment on EKVX NSCLC was above 100 µM throughout. Further, the TGI in the experiment on MCF7 breast and in the experiment on SNB-75 CNS was above 100 µM in each case.

Source of the values: PubChem BioAssay (NCI).
